Holding throughout (test): growth of human tumour cells (NCI), 48 h
Assay [1] deals with EKVX.
In assay [2] the test system is HL-60.
In assay [3] the test system is HOP-62.
The subject of assay [4] is Hs-578T.
Assay [5] relates to IGROV-1.
The test system of assay [6] is K562.
The subject of assay [7] is KM12.
Assay [8] concerns M14.
Assay [9] has as its system MCF7.
The test system of assay [10] is Malme-3M.
Assay [11] concerns NCI-H226.
Assay [12] relates to NCI/ADR-RES.
In assay [13] the test system is PC-3.
Assay [14] relates to RXF 393.
The test system of assay [15] is SF-268.
Assay [16] deals with SK-MEL-28.
Assay [17] relates to SK-MEL-2.
The subject of assay [18] is SK-MEL-5.
The subject of assay [19] is SR.
For assay [20], the system named is HOP-92.

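Test compounds were applied to cells in 96-well plates for 48 hours at 5 doses. Here, GI50 denotes the concentration required for 50% inhibition of growth.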 The source made the active and inactive calls. No stated cut-off is given here; in the data, active = GI50 up to about 1.1 µM and inactive = higher.

`c1cc(C2N3CCCN2CC3)ccn1` (stereo not given): the GI50 in [1] is > 100 µM (inactive); in assay [2] it was 40.2 µM (inactive); in [3] it was > 100 µM (inactive); in [4], 22.8 µM (inactive); in [5], 96.6 µM (inactive); in assay [6], 28.2 µM (inactive). In addition, the GI50 was > 100 µM (inactive) in [7]; 61.1 µM (inactive) in assay [8]; 37.8 µM (inactive) in assay [9]; 21.9 µM (inactive) in assay [10]; > 100 µM (inactive) in [11]; 61 µM (inactive) in [12]. Besides, the GI50 in assay [13] was > 100 µM (inactive); in [14], > 100 µM (inactive); in assay [15] it was 8.38 µM (inactive); in [16] it was > 100 µM (inactive); in [17] it was > 100 µM (inactive); in [18] it was 48.2 µM (inactive). For the same compound, in [19], the GI50 is 49.9 µM (inactive).

Take `Cc1ccc2nc(-c3ccc(N4C(=O)C(Cl)C4c4ccc(Cl)cc4)cc3)sc2c1` (stereo not given): the GI50 in assay [1] was 2.62 µM (inactive); in assay [2], 29.9 µM (inactive); in assay [3], 20.6 µM (inactive); in [20], 0.137 µM (active); in assay [4] it was 23.3 µM (inactive); in [6], 24.5 µM (inactive). For the same compound, the GI50 in assay [7] is 16.8 µM (inactive); in [8] it was 21.4 µM (inactive); in assay [9], 14.6 µM (inactive); in assay [10], 28.8 µM (inactive); in assay [11], 13.8 µM (inactive); in [12], 18.5 µM (inactive). Also, the GI50 in [13] was 10.5 µM (inactive); in [15] it was 22.8 µM (inactive); in assay [16] it was 8.75 µM (inactive); in assay [18] it was 14.2 µM (inactive); in [19], 24.2 µM (inactive).

As to `COC(=O)c1ccc(Cc2cc(Cc3ccc(C(=O)OC)cc3)cc(Cc3ccc(C(=O)OC)cc3)c2)cc1`, the GI50 in assay [1], in [2], in assay [3], in assay [20], in assay [4] and in assay [5] was > 25 µM (inactive) throughout. In addition, the GI50 in assay [6], in assay [7], in assay [8], in assay [9], in [10] and in assay [11] was > 25 µM (inactive) each time. Further, the GI50 in [12], in [13], in assay [15], in assay [16], in assay [17] and in assay [19] was > 25 µM (inactive) throughout.

As to `Cc1ccc2c(c1)C(=O)c1nc(C)ccc1C2=O`, the GI50 is 29.4 µM (inactive) in [1]; 21.3 µM (inactive) in assay [2]; 69 µM (inactive) in assay [3]; > 100 µM (inactive) in assay [4]; 22.1 µM (inactive) in [5]; 37.1 µM (inactive) in [6]. Moreover, the GI50 in assay [7] is 23.3 µM (inactive); in assay [8], 32.7 µM (inactive); in [9], 25.6 µM (inactive); in [10], 4.95 µM (inactive); in [11], 43.5 µM (inactive); in assay [12] it was 21.4 µM (inactive). Further, the GI50 in assay [13] is 35.2 µM (inactive); in [14], 66.7 µM (inactive); in [15], 32 µM (inactive); in [16], 50.7 µM (inactive); in assay [17], > 100 µM (inactive); in [18] it was 6.9 µM (inactive). Besides, the GI50 in [19] is 47.1 µM (inactive).

In the case of `Brc1ccc2c3c1[C@H]1O[C@H]1c1cccc(c1-3)[C@@H]1O[C@H]21`, the GI50 in [1] was 18.6 µM (inactive); in assay [3], 14.8 µM (inactive); in assay [20] it was 20.5 µM (inactive); in assay [4] it was 23.1 µM (inactive); in assay [6], 2.65 µM (inactive); in [7] it was 15.2 µM (inactive). The GI50 in assay [8] was 17.2 µM (inactive); in assay [9], 17.4 µM (inactive); in assay [10], 17.8 µM (inactive); in assay [11], 24.5 µM (inactive); in assay [12] it was 22.2 µM (inactive); in [13], 16.8 µM (inactive). For the same compound, the GI50 in assay [15] was 17.7 µM (inactive); in [16], 15.9 µM (inactive); in assay [17], 18.3 µM (inactive); in [18], 15 µM (inactive); in assay [19], 20.2 µM (inactive).

As to `COc1ccccc1-n1c(=O)n(C)c(=O)n1C(C)(C)C`, the GI50 in [1], in assay [2], in [4], in [6], in [7] and in assay [8] was > 100 µM (inactive) throughout. Further, the GI50 in [9], in assay [10], in [11], in assay [12], in [13] and in assay [14] was > 100 µM (inactive) in each case. Also, the GI50 in assay [15], in [16], in assay [17], in [18] and in assay [19] was > 100 µM (inactive) throughout.

For `CC(=O)O[C@H]1C(=O)[C@@]2(C)[C@H]([C@H](OC(=O)c3ccco3)[C@]3(O)C[C@H](OC(=O)[C@H](O)[C@@H](NC(=O)c4ccccc4)c4ccccc4)C(C)=C1C3(C)C)[C@]1(OC(C)=O)CO[C@@H]1C[C@@H]2O`, the GI50 in [1] is > 8.79 µM (inactive); in [2] it was 0.0227 µM (active); in assay [3], 0.676 µM (active); in [4], 0.0608 µM (active); in assay [5], 0.251 µM (active); in assay [6], 0.078 µM (active). Besides, the GI50 is 0.0834 µM (active) in [7]; 0.421 µM (active) in assay [8]; 0.034 µM (active) in assay [9]; 0.119 µM (active) in assay [10]; 0.429 µM (active) in assay [11]; > 25 µM (inactive) in assay [12]. For the same compound, the GI50 in assay [13] was 0.12 µM (active); in [14], 0.681 µM (active); in [15] it was 0.185 µM (active); in [17] it was 0.0594 µM (active); in assay [18] it was 0.116 µM (active); in assay [19], 0.0809 µM (active).

Take `O=c1[nH]nc(Cc2ccccc2)n1C1CCCC1`: the GI50 in assay [1], in [2], in assay [3], in assay [4], in assay [5] and in assay [6] was > 100 µM (inactive) in each case. Also, the GI50 in assay [7], in assay [8], in assay [9], in assay [10], in [11] and in [12] was > 100 µM (inactive) in each case. The GI50 in assay [13], in assay [14], in [15], in assay [16], in assay [18] and in assay [19] was > 100 µM (inactive) in each case.

On to `Cc1nc2cn3c(c2c(=O)[nH]1)CCCCC3`, for which the GI50 in [1], in assay [2], in assay [3], in [20], in assay [4] and in [5] was > 100 µM (inactive) each time. Moreover, the GI50 in assay [6], in [7], in [8], in [9], in [11] and in assay [12] was > 100 µM (inactive) in each case. Moreover, the GI50 in assay [13], in [14], in assay [15], in assay [16], in [17] and in assay [18] was > 100 µM (inactive) in each case. In assay [19], the GI50 is > 100 µM (inactive).

Regarding `O=C(O)Cc1cccc2c1OC(c1ccccc1)C(C(=O)c1ccccc1)C2=O` (stereo not given), the GI50 in assay [1] is 36.2 µM (inactive); in [2], 26.5 µM (inactive); in assay [3], > 100 µM (inactive); in [4], > 100 µM (inactive); in [5], 38.7 µM (inactive); in [6], 32.7 µM (inactive). In addition, the GI50 in assay [7] was 25.6 µM (inactive); in assay [9], 34.6 µM (inactive); in [10] it was 63.4 µM (inactive); in assay [11], > 100 µM (inactive); in assay [12], > 100 µM (inactive); in assay [13] it was > 100 µM (inactive). Moreover, the GI50 is > 100 µM (inactive) in assay [14]; 44 µM (inactive) in [15]; 65.3 µM (inactive) in assay [16]; > 100 µM (inactive) in assay [18]; 39.3 µM (inactive) in assay [19].

With `OC[C@H]1O[C@@H]2O[C@@](COCc3ccccc3)([C@H](OCc3ccccc3)[C@H]2O)[C@@H]1OCc1ccccc1`, the GI50 in assay [1] is 14.1 µM (inactive); in assay [2], 18.2 µM (inactive); in assay [3], 18.1 µM (inactive); in assay [20], 11.9 µM (inactive); in assay [4], 7.4 µM (inactive); in [5], 13.9 µM (inactive). For the same compound, the GI50 in [6] was 7.76 µM (inactive); in [7], 16.7 µM (inactive); in [8], 17.6 µM (inactive); in assay [9], 20.6 µM (inactive); in assay [12], 17.2 µM (inactive); in [13], 14.2 µM (inactive). Also, the GI50 was 18.1 µM (inactive) in [15], 16.3 µM (inactive) in assay [17], 15.3 µM (inactive) in assay [18] and 2.33 µM (inactive) in assay [19].

The record behind these values is ChEMBL document CHEMBL1201862, “PubChem BioAssay data set” (2004).
